Results taken from patent US4454122A, “Adenosine derivatives of anti-inflammatory and analgesic activity, and therapeutic compositions which contain them as their active principle” (Bioresearch S.r.l., priority 1982, dated 1984).
Where two headings read alike, the source gives them in different places.

How the values were obtained:
[1] = system: platelet aggregation induced by arachidonic acid; experiment: in vitro platelet aggregation induced by arachidonic acid (AA); assay type: cell-based; conditions: for antiaggregation action alone, AA induced (in words): MTA 5×10^-4 M or PGI2 5×10^-9 M, each alone, FIG. 3
Method: (2) "in vitro" tests on platelet aggregation induced by arachidonic acid (AA);
(§1) Blood was withdrawn without stasis, and an anticoagulant (3.8% sodium citrate) was added to give a blood:citrate ratio of 9:1. Plasma rich in platelets and plasma poor in platelets were obtained by centrifuging at ambient temperature.
(§2) The platelet aggregation was estimated using the Born & Cross method (G. V. R. Born and M. J. Cross, J. Physiol., Lond. 168, 178, 1963) on the plasma fraction rich in platelets.
(§3) The aggregating agents were used in the following concentrations:
(§4) ADP (Sigma) 1 μM; collagen (Horn) 5 μml; arachidonic acid 4×10^-4 M.
The capacity of MTA to increase the inhibiting effect of prostacyclin (PGI2) in aggregation induced by AA was also investigated. In FIG. 3, curve 1 relates to the controls, curve 2 to MTA at a concentration of 5×10^-4 M, curve 3 to PGI2 at a concentration of 5×10^-9 M, and curve 4 to a mixture consisting of 5×10^-4 M MTA and 5×10^-9 M PGI2.

[2] = system: experimental edema in the rat by carragen; experiment: experimental edema in the rat by carragen (Winter method), percentage protection; assay type: in vivo; conditions: for ED50: read-out: ED50 (edema test)
[3] = system: platelet aggregation induced by ADP; experiment: platelet aggregation induced by ADP in persons treated with the product ("in vivo" tests); design: species or system healthy volunteer subjects; conditions: 100 mg every 8 hours for 3 days; ADP 1 μM; FIG. 4
Method: (§5) (3) "in vitro" tests on platelet aggregation induced by ADP and collagen in persons treated with the new products.
(§6) Three apparently healthy volunteer subjects respectively, and who had not taken any drug for at least 15 days, were submitted to aggregation tests before and after consuming the new products at a dose of 100 mg every 8 hours for 3 days, these tests then being evaluated. The blood sample for the determination of the platelet aggregation was taken 2 hours […] consuming the last dose of product under test.
More precisely, the full-line curves relate to the values obtained with blood samples from untreated patients, whereas the dashed-line curves relate to the values obtained for the same patients treated with MTA.

[4] = system: experimental edema in the rat by carragen; experiment: experimental edema in the rat by carragen (Winter method), percentage protection; assay type: in vivo
Method: ^ (a) signifies that the product was administered intramuscularly.

[5] = system: sleep induced by pentobarbital in the mouse; experiment: Morris test, duration of the sleep induced by pentobarbital in the mouse; assay type: in vivo; conditions: 20 mg/kg, intramuscular
Method: The Morris test was used (Morris R. W. (1966) Arch. int. Pharmacodyn 161, No. 2, 380)
In this test, the MTA increased by 87% the duration of the sleep induced by pentobarbital in the mouse, at an intramuscular dose of 20 mg/kg.

[6] = system: mouse; experiment: hot plate test on the mouse according to Roberts (analgesic activity); assay type: in vivo
Method: C--The analgesic activity of the products was tested by two tests considered very significant.
In the hot plate test on the mouse according to Roberts (Roberts E. Simonsen D.G. (1966) Biochem. Pharmac. 15, 1875-) the MTA gives a protection of 50% with an oral dose of 37 mg/kg. An approximately equivalent protection of 58% is obtained with 100 mg/kg of amidopyrine administered orally.

[7] = system: pleuritis induced in the rat by carragen; experiment: pleuritis induced in the rat by carragen (Velo method); assay type: in vivo; conditions: for protection calculated on the total number of cells present in the exudate / protection calculated on the volume of the exudate: rat
[8] = system: granuloma in the rat by cotton pellets; experiment: granuloma test in the rat by cotton pellets; assay type: in vivo; conditions: 9 mg/kg, oral
Excerpt: (§7) In the granuloma test in the rat by cotton pellets (Winter […]. et al (1963) J. Pharm. Exper.

[9] = granuloma test in the rat by cotton pellets; assay type: in vivo; conditions: in vivo, 9 mg/kg, oral, read-out: TI (granuloma test)
Excerpt: as §7

[10] = system: fever induced in the rat by beer yeast; experiment: fever induced in the rat by beer yeast (antipyretic activity); assay type: in vivo
Method: This was measured for the new products by means of fever induced in the rat by beer yeast (Winder C. V. et al (1961) J. Pharmacol. Exp. Ther. 133, 117).

[11] = lethal dose in the rat and therapeutical index; conditions: in vivo; for selectivity ratio: edema test in the rat, read-out: therapeutical index (TI)
[12] = system: stretching by phenylquinone; experiment: stretching test by phenylquinone (analgesic activity); assay type: in vivo
[13] = system: platelet aggregation induced by ADP; experiment: in vitro platelet aggregation induced by ADP (Born & Cross method); assay type: cell-based
Method: (§8) (1) "in vitro" tests on platelet aggregation induced by ADP and collagen, in the presence of the new products;
as §1, §2, §3, §4
Adenosine at a concentration of 1×10^-5 M was used as the antiaggregation activity reference substance.
The results obtained with ADP are shown on the graphs of FIG. 1, in which the abscissa indicates the time in minutes and the ordinate the percentage aggregation.
Curve 1 relates to the controls, curve 2 to the samples treated with 1×10^-5 M adenosine, and curve 3 to the samples treated with 5×10^-4 M MTA.

[14] = system: gastro-intestinal system; experiment: secondary effects on the gastro-intestinal system at ED50 doses (gastric lesions); assay type: in vivo, rat
Method: In the same test, the ED50 of indomethacine is 9 mg/kg.

[15] = acute toxicity, DL50 in the mouse; conditions: in vivo
Excerpt: The compounds of the present invention are practically free from acute toxicity when administered orally. They are practically free from toxicity at therapeutic doses for any method of administration. The following values are obtained for MTA and MTA sulphoxide: […]

[16] = system: platelet aggregation induced by collagen; experiment: platelet aggregation induced by collagen in persons treated with the product ("in vivo" tests); design: species or system healthy volunteer subjects; conditions: 100 mg every 8 hours for 3 days; collagen 5 μg/ml
Method: as §5, §6

[17] = system: platelet aggregation induced by collagen; experiment: in vitro platelet aggregation induced by collagen (Born & Cross method); assay type: cell-based
Method: as §8, §1, §2, §3, §4

[18] = system: rat; conditions: Martelli A., 1973; cited from earlier work
[19] = summary of in vitro and in vivo tests
[20] = intramuscular, table 1 and all the tests carried out

Question: With `CCCCC[C@H](O)/C=C/[C@@H]1[C@H]2C/C(=C/CCCC(=O)O)O[C@H]2C[C@H]1O` [PGI2, reference compound] as the molecule, how does the “antiaggregation action alone, AA induced (in words)” value [1] read?
Answer: The value was “ineffective”.

Question: With `CSC[C@H]1O[C@@H](n2cnc3c(N)ncnc32)[C@H](O)[C@@H]1O` [MTA, 5'-deoxy-5'-methyl-thioadenosine] as the molecule, how does the inhibition in vivo at 37 mg/kg ([2]; po, 37 mg/kg orally, rat, read-out: Percent protection calculated on edema development) read?
Answer: Its inhibition in vivo at 37 mg/kg is 50%.

Question: And the ED50 ([2]; po, administered orally, rat)?
Answer: The ED50 was 37 mg/kg.

Question: And the “platelet aggregation induced by ADP "in vivo" (in words)” value [3]?
Answer: Its value is “strongly inhibits platelet aggregation induced by ADP”.

Question: And the inhibition in vivo at 23 mg/kg ([4]; im, 23 mg/kg intramuscularly, rat, read-out: Percent protection calculated on edema development)?
Answer: Its inhibition in vivo at 23 mg/kg is 50%.

Question: What about the “increase of the duration of the sleep induced by pentobarbital” value [5] of the same molecule?
Answer: Its value is 87%.

Question: And the “protection in the hot plate test” value ([6]; 37 mg/kg, oral)?
Answer: The value was 50%.

Question: And the “protection calculated on the total number of cells present in the exudate” value ([7]; 75 mg/kg, oral)?
Answer: The value was 48.8%.

Question: And the “protection calculated on the volume of the exudate” value ([7]; 75 mg/kg, oral)?
Answer: The value was 42.4%.

Question: And the “protection in the granuloma test” value [8]?
Answer: Its value is 30%.

Question: And the selectivity ratio [9]?
Answer: Its selectivity ratio is 222.

Question: And the temperature reduction ([10]; 80 mg/kg, intramuscular)?
Answer: The temperature reduction was 2.35%.

Question: And the “temperature reduction with respect to the controls” value ([10]; 300 mg/kg, oral, one hour after administration)?
Answer: The value was 4.59%.

Question: And the “temperature after lowering (from 38.8° C.)” value ([10]; 300 mg/kg, oral, one hour after administration, lowering from 38.8° C.)?
Answer: Its value is 37.4 °C.

Question: What about the selectivity ratio [11] of the same molecule?
Answer: The selectivity ratio was greater than 54.

Question: And the LD50 ([11]; rat, route printed "/oa")?
Answer: Its LD50 is 200 mg/kg.

Question: And the “platelet aggregation inhibiting effect, AA induced (in words)” value ([1]; 2.5×10^-4, 5×10^-4 and 10^-3 M, AA 4×10^-4 M, FIG. 2)?
Answer: Its value is “proportional to its concentration”.

Question: And the “antiaggregation action alone, AA induced (in words)” value [1]?
Answer: Its value is “ineffective”.

Question: What about the “protection in the stretching test by phenylquinone” value ([12]; 37 mg/kg, oral) of the same molecule?
Answer: Its value is 51%.

Question: And the “effect on primary platelet aggregation due to ADP (in words)” value ([13]; 5×10^-4 M, ADP 1 μM, in vitro, FIG. 1)?
Answer: Its value is “strongly reduces primary platelet aggregation due to ADP”.

Question: And the “effect on 2nd aggregation wave (in words)” value ([13]; 5×10^-4 M, ADP 1 μM, in vitro, as a consequence of reduced primary aggregation)?
Answer: The value was “inhibits the 2nd aggregation wave”.

Question: What about the “effect on the 1st aggregation wave (in words)” value [13, 19] of the same molecule?
Answer: Its value is “inhibits the 1st aggregation wave”.

Question: And the “inhibition of platelet aggregation induced by ADP, overall (in words)” value [13, 19]?
Answer: The value was “strongly inhibits platelet aggregation induced by ADP”.

Question: And the “secondary effect on the gastro-intestinal system / gastric lesions” value ([14]; rat, in vivo)?
Answer: Its value is “no secondary effect on the gastro-intestinal system”.

Question: What about the LD50 ([15]; po, orally) of the same molecule?
Answer: The LD50 was greater than 2000 mg/kg.

Question: What about the “inhibition of platelet aggregation induced by collagen (in words)” value [16] of the same molecule?
Answer: The value was “not effective in inhibiting platelet aggregation induced by collagen”.

Question: And the “latency time of platelet aggregation induced by collagen (in words)” value [16]?
Answer: The value was “lengthens the latency time”.

Question: What about the “inhibiting power towards platelet aggregation induced by collagen (in words)” value ([17]; in vitro, collagen printed 5 μml) of the same molecule?
Answer: The value was “no inhibiting power towards platelet aggregation induced by collagen which was worthy of note”.

Question: And the “direct effect on the 2nd aggregation wave (in words)” value [17, 19]?
Answer: The value was “negligible direct effect on the 2nd aggregation wave”.

Question: What about the “effect on aggregation induced by collagen, overall (in words)” value [17, 19] of the same molecule?
Answer: The value was “practically no effect on aggregation induced by collagen”.

Question: With `C[S+]([O-])C[C@H]1O[C@@H](n2cnc3c(N)ncnc32)[C@H](O)[C@@H]1O` (some centres unmarked) [MTA sulphoxide, methylthioadenosine sulphoxide] as the molecule, how does the “activity by intramuscular administration (in words)” value [2, 20] read?
Answer: Its value is “particularly active”.

Question: What about the inhibition in vivo at 156 mg/kg ([2]; po, 156 mg/kg orally, rat, read-out: Percent protection calculated on edema development) of the same molecule?
Answer: The inhibition in vivo at 156 mg/kg was 50%.

Question: What about the inhibition in vivo at 8.6 mg/kg ([4]; im, 8.6 mg/kg intramuscularly, rat, read-out: Percent protection calculated on edema development) of the same molecule?
Answer: The inhibition in vivo at 8.6 mg/kg was 50%.

Question: And the “activity by intramuscular administration (in words)” value [4, 20]?
Answer: The value was “greater activity”.

Question: What about the “protection in the hot plate test” value ([6]; 20 mg/kg, intramuscularly) of the same molecule?
Answer: The value was 50%.

Question: What about the “protection in the hot plate test” value ([6]; 100 mg/kg, oral) of the same molecule?
Answer: The value was 50%.

Question: And the “protection calculated on the total number of cells present in the exudate” value ([7]; 80 mg/kg, intramuscularly)?
Answer: The value was 76.4%.

Question: And the “protection calculated on the volume of the exudate” value ([7]; 80 mg/kg, intramuscularly)?
Answer: The value was 75.8%.

Question: And the ED50 ([12]; im, intramuscularly)?
Answer: The ED50 was 10 mg/kg.

Question: And the LD50 ([15]; iv, intravenously)?
Answer: The LD50 was 400 mg/kg.

Question: And the LD50 ([15]; po, orally)?
Answer: Its LD50 is greater than 2000 mg/kg.

Question: Which ED50 ([2]; Rattus norvegicus, po) does the source give for `COc1ccc2c(c1)c(CC(=O)O)c(C)n2C(=O)c1ccc(Cl)cc1` [Indomethacine, reference compound] here?
Answer: The ED50 was 9 mg/kg.

Question: And the inhibition in vivo at 9 mg/kg ([4]; Rattus norvegicus, po, read-out: Percent protection calculated on edema development)?
Answer: The inhibition in vivo at 9 mg/kg was 50%.

Question: What about the “protection, compared with that of MTA (in words)” value ([7]; 10 mg/kg, compared with MTA 75 mg/kg oral) of the same molecule?
Answer: Its value is “comparable protection”.

Question: And the selectivity ratio [11]?
Answer: Its selectivity ratio is 1.3.

Question: What about the “LD in the rat” value [18] of the same molecule?
Answer: The value was 12 mg/kg.

Question: What about the “secondary effect on the gastro-intestinal system / gastric lesions” value ([14]; at ED50 doses) of the same molecule?
Answer: Its value is “serious gastric lesions”.
